Here are results for 22 molecules from patent US20090143426A1, “Synthesis of 1,3,6-trisubstituted-2-carboxyquinol-4-ones as selective ET A antagonists and their use as medicaments” (priority 2007, published 2009).

Data set [1] relates to LPS-stimulated pregnant mice. The conditions noted are these: Koscica et al. 2004, Wang et al. 2008; cited from earlier work.
The subject of data set [2] is LPS-induced influx of neutrophils into the lung. The conditions noted are these: Bhavsar et al. 2008a, 2008b; cited from earlier work.
In data set [3] the test system is BALF neutrophils in female Syrian hamsters. The data set is described as follows: Animal model of smoking related acute lung injury (ET-1 plus cigarette smoke, BALF neutrophils). It is filed as in vivo, hamster. The procedure: Animal models of smoking related acute lung injury. The Animal Care and Utilization Committee of the College of Pharmacy and Allied Health Professions, St. John's University approved all experimental protocols, and the research was conducted according to the requirements of NIH Guide for the Care and Use of Laboratory Animals (revised 1996).
Female Syrian hamsters, weighing approximately 100 g each, were divided into two groups as follows: Group 1 was treated IP with: 1) 500 μg of HJP272 in 0.5 mL Na2CO3 and 2) 5 μg ET-1 in 0.25 mL PBS 60 minutes later, followed immediately by exposure to cigarette smoke for two hours. This regimen was continued for three days.
Group 2 was treated IP with: 1) 0.5 mL Na2CO3 and 2) […] ET-1 in 0.25 mL PBS 60 minutes later, followed immediately by exposure to cigarette smoke for three consecutive days as per Group 1. The animals were placed in a 70×48×38 cm chamber and passively exposed to cigarette smoke produced by a TE-10 smoking machine (Teague Enterprises, Davis, Calif.) that simultaneously burned two filtered research-grade cigarettes (type 2R4F, University of Kentucky). Smoke from both the filtered and burning ends of the cigarette was collected, and then mixed together with air in a separate chamber, thus simulating second-hand smoke exposure. Each cigarette was puffed once per minute for two seconds at a flow rate of 1.05 LPM, yielding 35 mL of smoke. This cycle was repeated nine times before ejecting the cigarette and loading a new one. Proper flow rate was maintained by a vacuum pump that established negative pressure at the exhaust port. Total smoke particulates averaged 87 mg per cubic meter.
All animals were sacrificed 24 hours after completing the smoke exposure regimen to maximize the neutrophil population in the lung, and the percentage of BALF neutrophils was measured (van der Vaart et al. 2004)

Positions of bridges follow the written chain, without caps; N, C: chain ends. Non-standard residues stand in square brackets, D forms with d. Residues, ends and D or L forms follow the SMILES beside them. No end group written: not given here.

In the case of `CC(C)C[C@@H]1NC(=O)[C@@H](C(C)C)NC(=O)[C@@H]2CCCN2C(=O)[C@@H](CC(=O)O)NC(=O)[C@@H](Cc2c[nH]c3ccccc23)NC1=O` [BQ-123] (cyclo(L[dW][dD]P[dV])), the “incidence of premature delivery” value in data set [1] is listed as “decreased incidence of premature delivery”.
In turn, `CCOC(=O)c1cccc(Cc2c(C(=O)OCC)n(Cc3cc4c(cc3CC)OCO4)c3ccc(O)cc3c2=O)c1` [Product 1a, Ethyl 3-(3-(ethoxycarbonyl)benzyl)-1-((6-ethylbenzo[d][1,3]dioxol-5-yl)methyl)-6-hydroxy-4-oxo-1,4-dihydroquinoline-2-carboxylate] showed a melting point of 232 to 234 °C.
The same measure, in the same setting: for `CCOC(=O)c1cccc(Cc2c(C(=O)OCC)n(Cc3cc4c(cc3CC)OCO4)c3ccc(OCC)cc3c2=O)c1` [Product 1b, Ethyl 6-ethoxy-3-(3-(ethoxycarbonyl)benzyl)-1-((6-ethylbenzo[d][1,3]dioxol-5-yl)methyl)-4-oxo-1,4-dihydroquinoline-2-carboxylate] the value was 124 to 126 °C.
Still for that read-out and setting: the same measure for `CCCOc1ccc2c(c1)c(=O)c(Cc1cccc(C(=O)OCC)c1)c(C(=O)OCC)n2Cc1cc2c(cc1CC)OCO2` [Product 1c, Ethyl 3-(3-(ethoxycarbonyl)benzyl)-1-((6-ethylbenzo[d][1,3]dioxol-5-yl)methyl)-4-oxo-6-propoxy-1,4-dihydroquinoline-2-carboxylate]: 134 to 135 °C; for `CCOC(=O)c1cccc(Cc2c(C(=O)OCC)n(Cc3cc4c(cc3CC)OCO4)c3ccc(OC(C)C)cc3c2=O)c1` [Product 1d, Ethyl 3-(3-(ethoxycarbonyl)benzyl)-1-((6-ethylbenzo[d][1,3]dioxol-5-yl)methyl)-6-isopropoxy-4-oxo-1,4-dihydroquinoline-2-carboxylate]: 124 to 126 °C.
The same measure, in the same setting: for `C=CCOc1ccc2c(c1)c(=O)c(Cc1cccc(C(=O)OCC)c1)c(C(=O)OCC)n2Cc1cc2c(cc1CC)OCO2` [Product 1e, Ethyl 6-(allyloxy)-3-(3-(ethoxycarbonyl)benzyl)-1-((6-ethylbenzo[d][1,3]dioxol-5-yl)methyl)-4-oxo-1,4-dihydroquinoline-2-carboxylate] the value was 128 to 131 °C; for `CCCCOc1ccc2c(c1)c(=O)c(Cc1cccc(C(=O)OCC)c1)c(C(=O)OCC)n2Cc1cc2c(cc1CC)OCO2` [Product 1g, Ethyl 6-butoxy-3-(3-(ethoxycarbonyl)benzyl)-1-((6-ethylbenzo[d][1,3]dioxol-5-yl)methyl)-4-oxo-1,4-dihydroquinoline-2-carboxylate], 147 to 150 °C; for `CCOC(=O)c1cccc(Cc2c(C(=O)OCC)n(Cc3cc4c(cc3CC)OCO4)c3ccc(OCC(C)C)cc3c2=O)c1` [Product 1h, Ethyl 3-(3-(ethoxycarbonyl)benzyl)-1-((6-ethylbenzo[d][1,3]dioxol-5-yl)methyl)-6-isobutoxy-4-oxo-1,4-dihydroquinoline-2-carboxylate], 129 to 132 °C.
The molecule `CCOC(=O)c1cccc(Cc2c(C(=O)OCC)n(Cc3cc4c(cc3CC)OCO4)c3ccc(OC(C)CC)cc3c2=O)c1` (stereo not drawn) [Product 1i, Ethyl 6-sec-butoxy-3-(3-(ethoxycarbonyl)benzyl)-1-((6-ethylbenzo[d][1,3]dioxol-5-yl)methyl)-4-oxo-1,4-dihydroquinoline-2-carboxylate] displayed a melting point of 129 to 132 °C.
Turning to `CCCCCOc1ccc2c(c1)c(=O)c(Cc1cccc(C(=O)OCC)c1)c(C(=O)OCC)n2Cc1cc2c(cc1CC)OCO2` [Product 1k, Ethyl 3-(3-(ethoxycarbonyl)benzyl)-1-((6-ethylbenzo[d][1,3]dioxol-5-yl)methyl)-4-oxo-6-(pentyloxy)-1,4-dihydroquinoline-2-carboxylate], the melting point was in the range of 98 to 99 °C.
`CCOC(=O)c1cccc(Cc2c(C(=O)OCC)n(Cc3cc4c(cc3CC)OCO4)c3ccc(OCCCO)cc3c2=O)c1` [Product 1l, Ethyl 3-(3-(ethoxycarbonyl)benzyl)-1-((6-ethylbenzo[d][1,3]dioxol-5-yl)methyl)-6-(3-hydroxypropoxy)-4-oxo-1,4-dihydroquinoline-2-carboxylate] registered a melting point of 129 to 132 °C.
On the same count and under the same terms, for `CCOc1ccc2c(c1)c(=O)c(Cc1cccc(C(=O)O)c1)c(C(=O)O)n2Cc1cc2c(cc1CC)OCO2` [Product 1o, 3-(3-carboxybenzyl)-6-ethoxy-1-((6-ethylbenzo[d][1,3]dioxol-5-yl)methyl)-4-oxo-1,4-dihydroquinoline-2-carboxylic acid] the value was 213 to 215 °C.
`CCCOc1ccc2c(c1)c(=O)c(Cc1cccc(C(=O)O)c1)c(C(=O)O)n2Cc1cc2c(cc1CC)OCO2` [Product 1p, 3-(3-carboxybenzyl)-1-((6-ethylbenzo[d][1,3]dioxol-5-yl)methyl)-4-oxo-6-propoxy-1,4-dihydroquinoline-2-carboxylic acid]: the melting point is 162 to 163 °C.
`CCc1cc2c(cc1Cn1c(C(=O)O)c(Cc3cccc(C(=O)O)c3)c(=O)c3cc(OC(C)C)ccc31)OCO2` [Product 1q, 3-(3-carboxybenzyl)-1-((6-ethylbenzo[d][1,3]dioxol-5-yl)methyl)-6-isopropoxy-4-oxo-1,4-dihydroquinoline-2-carboxylic acid]: the melting point is 199 to 200 °C.
On the same count and under the same terms, the same measure for `C=CCOc1ccc2c(c1)c(=O)c(Cc1cccc(C(=O)O)c1)c(C(=O)O)n2Cc1cc2c(cc1CC)OCO2` [Product 1r, 6-(allyloxy)-3-(3-carboxybenzyl)-1-((6-ethylbenzo[d][1,3]dioxol-5-yl)methyl)-4-oxo-1,4-dihydroquinoline-2-carboxylic acid]: 165 to 166 °C.
On the same count and under the same terms, the same measure for `CCCCOc1ccc2c(c1)c(=O)c(Cc1cccc(C(=O)O)c1)c(C(=O)O)n2Cc1cc2c(cc1CC)OCO2` [Product 1t, 6-butoxy-3-(3-carboxybenzyl)-1-((6-ethylbenzo[d][1,3]dioxol-5-yl)methyl)-4-oxo-1,4-dihydroquinoline-2-carboxylic acid]: 161 to 162 °C; for `CCc1cc2c(cc1Cn1c(C(=O)O)c(Cc3cccc(C(=O)O)c3)c(=O)c3cc(OCC(C)C)ccc31)OCO2` [Product 1u, 3-(3-carboxybenzyl)-1-((6-ethylbenzo[d][1,3]dioxol-5-yl)methyl)-6-isobutoxy-4-oxo-1,4-dihydroquinolin-2-carboxylic]: 185 to 186 °C; for `CCc1cc2c(cc1Cn1c(C(=O)O)c(Cc3cccc(C(=O)O)c3)c(=O)c3cc(OCC4CC4)ccc31)OCO2` [Product 1w, 3-(3-carboxybenzyl)-6-(cyclopropylmethoxy)-1-((6-ethylbenzo[d][1,3]dioxol-5-yl)methyl)-4-oxo-1,4-dihydroquinoline-2-carboxylic acid]: 229 to 231 °C.
In turn, `CCCCCOc1ccc2c(c1)c(=O)c(Cc1cccc(C(=O)O)c1)c(C(=O)O)n2Cc1cc2c(cc1CC)OCO2` [Product 1x, 3-(3-carboxybenzyl)-1-((6-ethylbenzo[d][1,3]dioxol-5-yl)methyl)-4-oxo-6-(pentyloxy)-1,4-dihydroquinoline-2-carboxylic acid] had a melting point of 152 to 155 °C.
`CCc1cc2c(cc1Cn1c(C(=O)O)c(Cc3cccc(C(=O)O)c3)c(=O)c3cc(OCCCO)ccc31)OCO2` [Product 1y, 3-(3-carboxybenzyl)-1-((6-ethylbenzo[d][1,3]dioxol-5-yl)methyl)-6-(3-hydroxypropoxy)-4-oxo-1,4-dihydroquinoline-2-carboxylic acid] had a melting point of 192 to 194 °C.
Regarding `CC(C)C[C@H](NP(=O)(O)O[C@@H]1O[C@@H](C)[C@H](O)[C@@H](O)[C@H]1O)C(=O)N[C@@H](Cc1c[nH]c2ccccc12)C(=O)O` [phosphoramidon], the “incidence of premature delivery” value in data set [1] is “decreases the incidence of premature delivery”. In data set [2], the “LPS-induced influx of neutrophils into the lung” value was “markedly reduces”.
“Endothelin-1 (CSCSSLMDKECVYFCHLDIIW; disulfide 1-15, 3-11; ends not checked; UniProt P05305 53-73, looked up) [ET-1, reference compound]”: the “percentage of BALF neutrophils” value is listed as 1% in data set [3] (ET-1 and room air); 46% in data set [3] (ET-1 prior to cigarette smoke, smoke-only control 18%).

Broadly, the melting point is the temperature, or range, at which the solid turns liquid.
